Data on three molecules can be found in article PMC11020753, “Contribution of amino acids in the active site of dipeptidyl peptidase 4 to the catalytic action of the enzyme” (PLOS ONE, 2024).

Like-named read-outs stand apart in the source and are kept apart here. Non-standard residues stand in square brackets, D forms with d. Residues, ends and D or L forms follow the SMILES beside them. *: point of attachment. AMC = Cc1cc(=O)oc2cc(N*)ccc12; Tle = CC(C)(C)[C@H](N)C(=O)O

Format in all cases: biochemical
Test [1] has as its target T1, DP4 variant N710Q (Homo sapiens, UniProt P27487, N710Q).
T1 construct: His(6)-37-766 hDP4 containing fractions were concentrated to 1 ml; made in house; host or cells: Pichia pastoris X-33 (vector pPICZα C, secreted)
Kind of test: IC50 determination with substrate Gly-Pro-AMC. Conditions: bounds given in mM, 100 mM HEPES-buffer (pH 7.6), T = 30 °C, substrate Gly-Pro-AMC in the range of Km. The procedure: (§1) The reactions were performed in 100 mM HEPES buffer, pH 7.6 at 30°C in a total assay volume of 270 μl by using 96-well plates. […] Fluorescence was detected with a […]luor Plus (TECAN) at an excitation wavelength of 380 nm and an emission wavelength of 465 nm.

Test [2] concerns the target T2, DP4 variant N710A (Homo sapiens, UniProt P27487, N710A).
T2 construct: His(6)-37-766 hDP4 containing fractions were concentrated to 1 ml; made in house; host or cells: Pichia pastoris X-33 (vector pPICZα C, secreted)
Kind of test: IC50 determination with substrate Gly-Pro-AMC. The settings on record: 100 mM HEPES-buffer (pH 7.6), T = 30 °C, substrate Gly-Pro-AMC in the range of Km. The procedure: as §1

Test [3] concerns the target T3, DP4 variant E205A (Homo sapiens, UniProt P27487, E205A).
T3 construct: His(6)-37-766 hDP4 containing fractions were concentrated to 1 ml as described above; His6 (N); made in house; host or cells: Pichia pastoris X-33, vector pPICZα C (secreted)
Kind of test: IC50 determination with substrate Gly-Pro-AMC. The settings on record: 100 mM HEPES-buffer (pH 7.6), T = 30 °C, substrate Gly-Pro-AMC in the range of Km. The procedure: as §1

For test [4], the target named is T4, DP4 variant N710D (Homo sapiens, UniProt P27487, N710D).
T4 construct: His(6)-37-766 hDP4 containing fractions were concentrated to 1 ml; made in house; host or cells: Pichia pastoris X-33 (vector pPICZα C, secreted)
T4 sequence (P27487 37-766 N710D): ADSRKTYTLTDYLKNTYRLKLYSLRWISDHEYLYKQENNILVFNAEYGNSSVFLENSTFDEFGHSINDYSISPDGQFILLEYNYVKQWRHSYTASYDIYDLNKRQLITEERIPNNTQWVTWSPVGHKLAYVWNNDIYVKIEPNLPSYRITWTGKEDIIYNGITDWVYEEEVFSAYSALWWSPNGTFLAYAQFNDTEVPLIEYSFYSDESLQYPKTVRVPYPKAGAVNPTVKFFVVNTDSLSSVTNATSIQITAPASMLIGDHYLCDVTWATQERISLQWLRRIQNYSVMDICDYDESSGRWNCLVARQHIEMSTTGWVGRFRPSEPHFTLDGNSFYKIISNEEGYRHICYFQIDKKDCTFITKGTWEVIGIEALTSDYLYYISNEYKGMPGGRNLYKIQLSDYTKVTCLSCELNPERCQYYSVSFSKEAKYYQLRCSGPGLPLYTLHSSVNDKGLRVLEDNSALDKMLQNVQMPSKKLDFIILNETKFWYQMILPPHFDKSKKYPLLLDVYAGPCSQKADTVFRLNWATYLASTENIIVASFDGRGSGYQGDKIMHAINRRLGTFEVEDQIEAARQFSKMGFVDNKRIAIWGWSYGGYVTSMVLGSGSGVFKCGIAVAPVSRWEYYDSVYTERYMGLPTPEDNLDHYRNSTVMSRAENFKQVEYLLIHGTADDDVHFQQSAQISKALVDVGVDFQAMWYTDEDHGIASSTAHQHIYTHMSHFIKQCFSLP
Kind of test: IC50 determination with substrate Gly-Pro-AMC. Conditions: 100 mM HEPES-buffer (pH 7.6), T = 30 °C, substrate Gly-Pro-AMC in the range of Km. The procedure:
as §1

Test [5] deals with T5, wild type DP4 (Homo sapiens, UniProt P27487).
T5 construct: His(6)-37-766 hDP4 containing fractions were concentrated to 1 ml; made in house; host or cells: Pichia pastoris X-33 (vector pPICZα C, secreted)
T5 sequence (P27487 37-766): as the sequence (P27487 37-766 N710D) above, with D674N counted along it
Kind of test: IC50 determination with substrate Gly-Pro-AMC. The settings on record: 100 mM HEPES-buffer (pH 7.6), T = 30 °C, substrate Gly-Pro-AMC in the range of Km. The procedure:
as §1

Test [6] has as its target T6, DP4 variant E206A (Homo sapiens, UniProt P27487, E206A).
T6 construct: His(6)-37-766 hDP4 containing fractions were concentrated to 1 ml as described above; His6 (N); made in house; host or cells: Pichia pastoris X-33, vector pPICZα C (secreted)
Kind of test: IC50 determination with substrate Gly-Pro-AMC. The settings on record: bounds given in mM, 100 mM HEPES-buffer (pH 7.6), T = 30 °C, substrate Gly-Pro-AMC in the range of Km. The procedure: as §1

Test [7] addresses T7, DP4 variant R125A (Homo sapiens, UniProt P27487, R125A).
T7 construct: His(6)-37-766 hDP4 containing fractions were concentrated to 1 ml; made in house; host or cells: Pichia pastoris X-33 (vector pPICZα C, secreted)
Kind of test: IC50 determination with substrate Gly-Pro-AMC. The settings on record: 100 mM HEPES-buffer (pH 7.6), T = 30 °C, substrate Gly-Pro-AMC in the range of Km. How it is done: as §1

The target of test [8] is T8, DP4 variant R125K (Homo sapiens, UniProt P27487, R125K).
T8 construct: His(6)-37-766 hDP4 containing fractions were concentrated to 1 ml; made in house; host or cells: Pichia pastoris X-33 (vector pPICZα C, secreted)
T8 sequence (P27487 37-766 R125K): as the sequence (P27487 37-766 N710D) above, with R89K, D674N counted along it
Kind of test: IC50 determination with substrate Gly-Pro-AMC. Conditions: 100 mM HEPES-buffer (pH 7.6), T = 30 °C, substrate Gly-Pro-AMC in the range of Km. How it is done:
as §1

In test [9] the target is T1, DP4 variant N710Q. Kind of test: Hydrolysis of dipeptide-AMC substrates (fluorescence).
Description: The reactions were performed in 100 mM HEPES buffer, pH 7.6 at 30°C in a total assay volume of 270 μl by using 96-well plates. […] Fluorescence was detected with a [sequence]luor Plus (TECAN) at an excitation wavelength of 380 nm and an emission wavelength of 465 nm.
Test [10] deals with T4, DP4 variant N710D. The description is as above. The settings on record: substrate hydrolysis, 100 mM HEPES-buffer (pH 7.6), T = 30 °C.
For test [11], the target named is T2, DP4 variant N710A. Described as above. Conditions: for Km / kcat: N710A, substrate hydrolysis, 100 mM HEPES-buffer (pH 7.6), T = 30 °C. The procedure: as §1
Test [12] has as its target T3, DP4 variant E205A. Described as above. Conditions: substrate hydrolysis, 100 mM HEPES-buffer (pH 7.6), T = 30 °C. The procedure: as §1
The target of test [13] is T5, wild type DP4. The test is described as above. The settings on record: substrate hydrolysis, 100 mM HEPES-buffer (pH 7.6), T = 30 °C. The procedure: as §1
In test [14] the target is T6, DP4 variant E206A. The test is described as above. Conditions: substrate hydrolysis, 100 mM HEPES-buffer (pH 7.6), T = 30 °C. How it is done:
as §1

For test [15], the target named is T7, DP4 variant R125A. Described as above. Conditions: substrate hydrolysis, 100 mM HEPES-buffer (pH 7.6), T = 30 °C. How it is done: as §1
For test [16], the target named is T8, DP4 variant R125K. The test is described as above. Conditions: substrate hydrolysis, 100 mM HEPES-buffer (pH 7.6), T = 30 °C. How it is done:
as §1

Setting [17] is: N710Q, substrate hydrolysis, 100 mM HEPES-buffer (pH 7.6), T = 30 °C.

T1 sequence (P27487 37-766 N710Q): as the sequence (P27487 37-766 N710D) above, with D674Q counted along it
T7 sequence (P27487 37-766 R125A): as the sequence (P27487 37-766 N710D) above, with R89A, D674N counted along it
T3 sequence (P27487 37-766 E205A): as the sequence (P27487 37-766 N710D) above, with E169A, D674N counted along it
T6 sequence (P27487 37-766 E206A): as the sequence (P27487 37-766 N710D) above, with E170A, D674N counted along it
T2 sequence (P27487 37-766 N710A): as the sequence (P27487 37-766 N710D) above, with D674A counted along it

For the molecule `CC[C@H](C)[C@H](NC(=O)[C@@H]1CCCN1C(=O)[C@@H](N)C(C)(C)C)C(N)=O` [t-Bu-Gly-Pro-Ile-NH2, t-Butyl-Gly-Pro-Ile-NH2] (H-[Tle]-Pro-Ile-NH2), the IC50 against DP4 variant N710Q [1] was greater than 10 mM; against DP4 variant N710A [2], 140 µM; at DP4 variant E205A [3] it was 1.3 mM; at DP4 variant N710D [4] it was 400 µM; on wild type DP4 [5], 6.7 µM; against DP4 variant E206A [6], greater than 10 mM. Further, the figures for the IC50 against DP4 variant R125A [7] and against DP4 variant R125K [8] were 80 µM and 53 µM, respectively.
For the molecule `Cc1cc(=O)oc2cc(NC(=O)[C@H](C)NC(=O)[C@H](C)N)ccc12` [Ala-Ala-AMC] (H-Ala-Ala-{AMC}), the Km result is “No hydrolysis at concentrations < 10 mM” at DP4 variant N710Q [9] (setting [17]); 1.8 mM at DP4 variant N710D [10]; 0.41 mM on DP4 variant N710A [11]; 4.7 mM on DP4 variant E205A [12]; 550 µM at wild type DP4 [13]; “No hydrolysis at concentrations < 10 mM” on DP4 variant E206A [14]. Besides, the Km at DP4 variant R125A [15] was 710 µM; at DP4 variant R125K [16], 1500 µM. For the same molecule, the kcat result was “No hydrolysis at concentrations < 10 mM” on DP4 variant N710Q [9] (setting [17]); 0.05 ± 0.003 s⁻¹ on DP4 variant N710D [10]; “(9.4 ± 0.06) · 10^−3 s^−1” on DP4 variant N710A [11]; 0.15 ± 0.015 s⁻¹ at DP4 variant E205A [12]; 5.7 ± 0.18 s⁻¹ at wild type DP4 [13]; “No hydrolysis at concentrations < 10 mM” at DP4 variant E206A [14]. Further, the kcat at DP4 variant R125A [15] is 2.3 ± 0.08 s⁻¹; at DP4 variant R125K [16], 2.6 ± 0.09 s⁻¹.
Take `Cc1cc(=O)oc2cc(NC(=O)[C@@H]3CCCN3C(=O)[C@H](C)N)ccc12` [Ala-Pro-AMC] (H-Ala-Pro-{AMC}): the “Change of Km-value in comparison to the wild type enzyme (decreased)” value at DP4 variant N710Q [9] (N710Q vs wild type) and on DP4 variant N710A [11] (N710A vs wild type) was 100 fold each time. Further, the “Drop of kcat-value in comparison to the wild type enzyme” value on DP4 variant N710Q [9] (N710Q vs wild type) and at DP4 variant N710A [11] (N710A vs wild type) was roughly 30 factor in each case. Moreover, the kcat was 0.23 ± 0.01 s⁻¹ on DP4 variant N710Q [9] (setting [17]); 19 ± 0.6 s⁻¹ at DP4 variant N710D [10]; 0.74 ± 0.03 s⁻¹ at DP4 variant N710A [11]; 17 ± 0.2 s⁻¹ at DP4 variant E205A [12]; 32 ± 0.9 s⁻¹ on wild type DP4 [13]; 0.8 ± 0.05 s⁻¹ at DP4 variant E206A [14]. For the same molecule, the values for the kcat at DP4 variant R125A [15] and on DP4 variant R125K [16] were 48 ± 1.0 s⁻¹ and 37 ± 0.5 s⁻¹, respectively. Also, the Km on DP4 variant N710A [11] worked out at 1.7 mM; on DP4 variant E205A [12], 0.24 mM; at wild type DP4 [13] it was 19 µM; on DP4 variant E206A [14] (read-out: Km), 3.4 mM; on DP4 variant R125A [15], 37 µM; on DP4 variant R125K [16], 38 µM.

Broadly, the IC50 is the concentration that inhibits the measured activity by half. Low readings indicate inhibition by little substance, high ones a need for much substance. One may read the Km as the concentration of substrate that gives half-maximal velocity. Usually kcat stands for the maximal rate divided by the concentration of active sites.
